Data reported in the supplement of paper PMC10307832.

How the values were obtained:
Assay in all cases: relative viability (nuclei count vs DMSO), 5 days (fraction); higher = more cells survive
[1] = compound: CCn1c(-c2nonc2N)nc2cnc(Oc3cccc(NC(=O)c4ccc(OCCN5CCOCC5)cc4)c3)cc21 + N=C(N)NC(=N)NCCc1ccccc1 [Phenformin] (partner 250 µM)
In short: (§1)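 Values are medians from duplicate plates. Each reflects relative viability, defined as the nuclei count of treated wells over that of vehicle wells. Lung cancer cell lines in 1536-well plates were pin-tool dosed one day after seeding with one drug alone or with a fixed anchor-drug dose plus five library-drug doses (not always all listed) in √10 steps, then fixed, stained and imaged at 4× after 5 days.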

[2] = compound: CCC1=CN=CN=C1N2CCN(CC2)CC3=NC4=C(N3)C=C(C=C4)C(F)(F)F + CS(=O)(=O)N1CCN(Cc2cc3nc(-c4cccc5[nH]ncc45)nc(N4CCOCC4)c3s2)CC1 [Pictilisib] (partner 1 µM)
In short: as §1

[3] = compound: CCn1c(-c2nonc2N)nc2cnc(Oc3cccc(NC(=O)c4ccc(OCCN5CCOCC5)cc4)c3)cc21 + O=C(c1cc(Cc2n[nH]c(=O)c3ccccc23)ccc1F)N1CCN(C(=O)C2CC2)CC1 [Olaparib] (partner 8 µM)
In short: as §1

Mirin + Crizotinib = compound: N=C1NC(=O)/C(=C/c2ccc(O)cc2)S1 [Mirin] + C[C@@H](Oc1cc(-c2cnn(C3CCNCC3)c2)cnc1N)c1c(Cl)ccc(F)c1Cl [Crizotinib] (partner 1 µM)
In short: as §1

Cell Line: NCI-H2347
- relative viability ([1]; first compound 0.04 µM): 0.521
- relative viability ([1]; first compound 0.1265 µM): 0.784
- relative viability ([1]; first compound 0.4 µM): 0.465
- relative viability ([1]; first compound 1.265 µM): 0.312
- relative viability ([1]; first compound 4 µM): 0.403
- relative viability ([2]; first compound 0.04 µM): 0.58
- relative viability ([2]; first compound 0.1265 µM): 0.591
- relative viability ([2]; first compound 0.4 µM): 0.652
- relative viability ([2]; first compound 4 µM): 0.671
- relative viability ([3]; first compound 0.04 µM): 0.549
- relative viability ([3]; first compound 0.1265 µM): 0.587
- relative viability ([3]; first compound 0.4 µM): 0.824
- relative viability ([3]; first compound 1.265 µM): 0.383
- relative viability ([3]; first compound 4 µM): 0.448
- relative viability (Mirin + Crizotinib; first compound 0.25 µM): 0.759
- relative viability (Mirin + Crizotinib; first compound 0.7906 µM): 0.68
- relative viability (Mirin + Crizotinib; first compound 2.5 µM): 0.693
- relative viability (Mirin + Crizotinib; first compound 7.906 µM): 0.502
- relative viability (Mirin + Crizotinib; first compound 25 µM): 0.631

Cell Line: NCI-H2405
- relative viability ([1]; first compound 0.04 µM): 0.379
- relative viability ([1]; first compound 0.1265 µM): 0.236
- relative viability ([1]; first compound 0.4 µM): 0.0695
- relative viability ([1]; first compound 1.265 µM): 0.124
- relative viability ([1]; first compound 4 µM): 0.13
- relative viability ([2]; first compound 0.04 µM): 0.486
- relative viability ([2]; first compound 0.1265 µM): 0.379
- relative viability ([2]; first compound 0.4 µM): 0.43
- relative viability ([2]; first compound 4 µM): 0.575
- relative viability ([3]; first compound 0.04 µM): 0.883
- relative viability ([3]; first compound 0.1265 µM): 0.57
- relative viability ([3]; first compound 0.4 µM): 0.341
- relative viability ([3]; first compound 1.265 µM): 0.258
- relative viability ([3]; first compound 4 µM): 0.287
- relative viability (Mirin + Crizotinib; first compound 0.25 µM): 0.835
- relative viability (Mirin + Crizotinib; first compound 0.7906 µM): 0.584
- relative viability (Mirin + Crizotinib; first compound 2.5 µM): 0.878
- relative viability (Mirin + Crizotinib; first compound 7.906 µM): 0.816
- relative viability (Mirin + Crizotinib; first compound 25 µM): 0.793

Cell Line: NCI-H3122
- relative viability ([1]; first compound 0.04 µM): 0.369
- relative viability ([1]; first compound 0.1265 µM): 0.328
- relative viability ([1]; first compound 0.4 µM): 0.317
- relative viability ([1]; first compound 1.265 µM): 0.256
- relative viability ([1]; first compound 4 µM): 0.23
- relative viability ([2]; first compound 0.04 µM): 0.69
- relative viability ([2]; first compound 0.1265 µM): 0.578
- relative viability ([2]; first compound 0.4 µM): 0.609
- relative viability ([2]; first compound 1.265 µM): 0.665
- relative viability ([2]; first compound 4 µM): 0.659
- relative viability ([3]; first compound 0.04 µM): 0.697
- relative viability ([3]; first compound 0.1265 µM): 0.618
- relative viability ([3]; first compound 0.4 µM): 0.643
- relative viability ([3]; first compound 1.265 µM): 0.607
- relative viability ([3]; first compound 4 µM): 0.592
- relative viability (Mirin + Crizotinib; first compound 0.25 µM): 0.247
- relative viability (Mirin + Crizotinib; first compound 0.7906 µM): 0.256
- relative viability (Mirin + Crizotinib; first compound 2.5 µM): 0.266
- relative viability (Mirin + Crizotinib; first compound 7.906 µM): 0.229
- relative viability (Mirin + Crizotinib; first compound 25 µM): 0.247

Cell Line: PC-3 [JPC-3]
- relative viability ([1]; first compound 0.04 µM): 0.5
- relative viability ([1]; first compound 0.1265 µM): 0.488
- relative viability ([1]; first compound 0.4 µM): 0.478
- relative viability ([1]; first compound 1.265 µM): 0.465
- relative viability ([1]; first compound 4 µM): 0.459
- relative viability ([2]; first compound 0.04 µM): 0.704
- relative viability ([2]; first compound 0.1265 µM): 0.657
- relative viability ([2]; first compound 0.4 µM): 0.604
- relative viability ([2]; first compound 1.265 µM): 0.739
- relative viability ([2]; first compound 4 µM): 0.697
- relative viability ([3]; first compound 0.04 µM): 1.13
- relative viability ([3]; first compound 0.1265 µM): 1.14
- relative viability ([3]; first compound 0.4 µM): 0.966
- relative viability ([3]; first compound 1.265 µM): 0.746
- relative viability ([3]; first compound 4 µM): 0.861
- relative viability (Mirin + Crizotinib; first compound 0.25 µM): 1
- relative viability (Mirin + Crizotinib; first compound 0.7906 µM): 1.1
- relative viability (Mirin + Crizotinib; first compound 2.5 µM): 1.02
- relative viability (Mirin + Crizotinib; first compound 7.906 µM): 1.03
- relative viability (Mirin + Crizotinib; first compound 25 µM): 1.11

Cell Line: PC-14
- relative viability ([1]; first compound 0.04 µM): 0.962
- relative viability ([1]; first compound 0.1265 µM): 0.556
- relative viability ([1]; first compound 0.4 µM): 0.549
- relative viability ([1]; first compound 1.265 µM): 0.258
- relative viability ([1]; first compound 4 µM): 0.457
- relative viability ([2]; first compound 0.04 µM): 0.845
- relative viability ([2]; first compound 0.1265 µM): 0.621
- relative viability ([2]; first compound 0.4 µM): 0.671
- relative viability ([2]; first compound 1.265 µM): 0.573
- relative viability ([2]; first compound 4 µM): 0.6
- relative viability ([3]; first compound 0.04 µM): 0.27
- relative viability ([3]; first compound 0.1265 µM): 0.206
- relative viability ([3]; first compound 0.4 µM): 0.287
- relative viability ([3]; first compound 1.265 µM): 0.309
- relative viability ([3]; first compound 4 µM): 0.326
- relative viability (Mirin + Crizotinib; first compound 0.25 µM): 0.873
- relative viability (Mirin + Crizotinib; first compound 0.7906 µM): 0.893
- relative viability (Mirin + Crizotinib; first compound 2.5 µM): 0.887
- relative viability (Mirin + Crizotinib; first compound 7.906 µM): 0.945
- relative viability (Mirin + Crizotinib; first compound 25 µM): 1.07

Cell Line: RERF-LC-KJ
- relative viability ([1]; first compound 0.04 µM): 0.487
- relative viability ([1]; first compound 0.1265 µM): 0.42
- relative viability ([1]; first compound 0.4 µM): 0.379
- relative viability ([1]; first compound 1.265 µM): 0.289
- relative viability ([1]; first compound 4 µM): 0.324
- relative viability ([2]; first compound 0.04 µM): 0.558
- relative viability ([2]; first compound 0.1265 µM): 0.498
- relative viability ([2]; first compound 0.4 µM): 0.487
- relative viability ([2]; first compound 1.265 µM): 0.444
- relative viability ([2]; first compound 4 µM): 0.505
- relative viability ([3]; first compound 0.04 µM): 0.898
- relative viability ([3]; first compound 0.1265 µM): 0.84
- relative viability ([3]; first compound 0.4 µM): 0.759
- relative viability ([3]; first compound 1.265 µM): 0.447
- relative viability ([3]; first compound 4 µM): 0.388
- relative viability (Mirin + Crizotinib; first compound 0.25 µM): 0.845
- relative viability (Mirin + Crizotinib; first compound 0.7906 µM): 0.894
- relative viability (Mirin + Crizotinib; first compound 2.5 µM): 0.821
- relative viability (Mirin + Crizotinib; first compound 7.906 µM): 0.845
- relative viability (Mirin + Crizotinib; first compound 25 µM): 0.913

Cell Line: SK-LU-1
- relative viability ([1]; first compound 0.04 µM): 0.488
- relative viability ([1]; first compound 0.1265 µM): 0.409
- relative viability ([1]; first compound 0.4 µM): 0.333
- relative viability ([1]; first compound 1.265 µM): 0.251
- relative viability ([1]; first compound 4 µM): 0.238
- relative viability ([2]; first compound 0.04 µM): 0.573
- relative viability ([2]; first compound 0.1265 µM): 0.494
- relative viability ([2]; first compound 0.4 µM): 0.469
- relative viability ([2]; first compound 4 µM): 0.486
- relative viability ([3]; first compound 0.04 µM): 0.571
- relative viability ([3]; first compound 0.1265 µM): 0.305
- relative viability ([3]; first compound 0.4 µM): 0.327
- relative viability ([3]; first compound 1.265 µM): 0.235
- relative viability ([3]; first compound 4 µM): 0.257
- relative viability (Mirin + Crizotinib; first compound 0.25 µM): 0.888
- relative viability (Mirin + Crizotinib; first compound 0.7906 µM): 1.05
- relative viability (Mirin + Crizotinib; first compound 2.5 µM): 1.01
- relative viability (Mirin + Crizotinib; first compound 7.906 µM): 0.765
- relative viability (Mirin + Crizotinib; first compound 25 µM): 0.564

Cell Line: SK-MES-1
- relative viability ([1]; first compound 0.04 µM): 0.695
- relative viability ([1]; first compound 0.1265 µM): 0.655
- relative viability ([1]; first compound 0.4 µM): 0.515
- relative viability ([1]; first compound 1.265 µM): 0.271
- relative viability ([1]; first compound 4 µM): 0.257
- relative viability ([2]; first compound 0.04 µM): 0.431
- relative viability ([2]; first compound 0.1265 µM): 0.354
- relative viability ([2]; first compound 0.4 µM): 0.346
- relative viability ([2]; first compound 1.265 µM): 0.282
- relative viability ([2]; first compound 4 µM): 0.38
- relative viability ([3]; first compound 0.04 µM): 0.772
- relative viability ([3]; first compound 0.1265 µM): 0.721
- relative viability ([3]; first compound 0.4 µM): 0.656
- relative viability ([3]; first compound 1.265 µM): 0.568
- relative viability ([3]; first compound 4 µM): 0.483
- relative viability (Mirin + Crizotinib; first compound 0.25 µM): 1.03
- relative viability (Mirin + Crizotinib; first compound 0.7906 µM): 1.14
- relative viability (Mirin + Crizotinib; first compound 2.5 µM): 1
- relative viability (Mirin + Crizotinib; first compound 7.906 µM): 1.04
- relative viability (Mirin + Crizotinib; first compound 25 µM): 1.19

Cell Line: SW 1573
- relative viability ([1]; first compound 0.04 µM): 0.513
- relative viability ([1]; first compound 0.1265 µM): 0.345
- relative viability ([1]; first compound 0.4 µM): 0.344
- relative viability ([1]; first compound 1.265 µM): 0.282
- relative viability ([1]; first compound 4 µM): 0.154
- relative viability ([2]; first compound 0.04 µM): 0.441
- relative viability ([2]; first compound 0.1265 µM): 0.43
- relative viability ([2]; first compound 0.4 µM): 0.44
- relative viability ([2]; first compound 1.265 µM): 0.474
- relative viability ([2]; first compound 4 µM): 0.426
- relative viability ([3]; first compound 0.04 µM): 0.594
- relative viability ([3]; first compound 0.1265 µM): 0.4
- relative viability ([3]; first compound 0.4 µM): 0.287
- relative viability ([3]; first compound 1.265 µM): 0.24
- relative viability ([3]; first compound 4 µM): 0.183
- relative viability (Mirin + Crizotinib; first compound 0.25 µM): 0.681
- relative viability (Mirin + Crizotinib; first compound 0.7906 µM): 0.643
- relative viability (Mirin + Crizotinib; first compound 2.5 µM): 0.838
- relative viability (Mirin + Crizotinib; first compound 7.906 µM): 0.86
- relative viability (Mirin + Crizotinib; first compound 25 µM): 0.624
